The test system of this test is P388 leukemia ip, CD2F1 mice, survival T/C. As to the kind of experiment: NCI In Vivo Anticancer Drug Screen. Data for tumor model P388 Leukemia (intraperitoneal) in CD2F1 (CDF1) mice. The following applies: endpoint: median survival time, higher = longer survival. The essentials:
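Mice carrying the transplanted tumor received test compound or vehicle. Survival was recorded in each group, and the value is the treated-group measurement divided by that of the vehicle-treated control group.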

[1] abbreviates: dose: 50.0 mg/kg/injection, schedule: Q01DX009 (ip), vehicle: saline with Tween-80.
Setting [2] is: dose: 100.0 mg/kg/injection, schedule: Q01DX009 (ip), vehicle: saline with Tween-80.
Setting [3] is: dose: 200.0 mg/kg/injection, schedule: Q01DX009 (ip), vehicle: saline with Tween-80.
Where [4] appears, read: dose: 60.0 mg/kg/injection, schedule: Q01DX005 (ip), vehicle: saline with Tween-80.
Where [5] appears, read: dose: 120.0 mg/kg/injection, schedule: Q01DX005 (ip), vehicle: saline with Tween-80.
Setting [6] is: dose: 240.0 mg/kg/injection, schedule: Q01DX005 (ip), vehicle: saline with Tween-80.
Where [7] appears, read: dose: 50.0 mg/kg/injection, schedule: Q01DX005 (ip), vehicle: saline with Tween-80.
Where [8] appears, read: dose: 200.0 mg/kg/injection, schedule: Q01DX005 (ip), vehicle: saline with Tween-80.

Where “and” joins values, the source holds several entries; their conditions need not be identical. Equal entries are not always repeated. Inconclusive results and toxic doses are left out.

On to `[N-]=[N+]=CC(=O)NCC(=O)NNC(=O)c1ccccc1`, for which the T/C was 92 % of control (dose: 3.12 mg/kg/injection, schedule: Q01DX009 (ip), vehicle: saline); 87 % of control (dose: 6.25 mg/kg/injection, schedule: Q01DX009 (ip), vehicle: saline); 100 % of control (dose: 12.5 mg/kg/injection, schedule: Q01DX009 (ip), vehicle: saline); 87 % of control (dose: 25.0 mg/kg/injection, schedule: Q01DX009 (ip), vehicle: saline).

Turning to `Cn1c(=O)c2cc3c(cc2c2ccccc21)OCO3`, the T/C (dose: 25.0 mg/kg/injection, schedule: Q01DX009 (ip), vehicle: other) was 90 % of control; the T/C (dose: 50.0 mg/kg/injection, schedule: Q01DX009 (ip), vehicle: other) was 93 % of control; the T/C (dose: 100.0 mg/kg/injection, schedule: Q01DX009 (ip), vehicle: other) is 90 % of control; the T/C (dose: 200.0 mg/kg/injection, schedule: Q01DX009 (ip), vehicle: other) was 90 % of control; the T/C (dose: 400.0 mg/kg/injection, schedule: Q01DX009 (ip), vehicle: other) was 93 % of control.

On to `COC(=O)C12CC=CCC1(C(=O)OC)CC=CC2` (centres undefined), for which the T/C runs as follows: (dose: 50.0 mg/kg/injection, schedule: Q01DX009 (ip), vehicle: Klucel (hydroxypropylcellulose) (HPC)) 101 % of control; (dose: 100.0 mg/kg/injection, schedule: Q01DX009 (ip), vehicle: Klucel (hydroxypropylcellulose) (HPC)) 100 % of control; (dose: 200.0 mg/kg/injection, schedule: Q01DX009 (ip), vehicle: Klucel (hydroxypropylcellulose) (HPC)) 102 % of control.

On to `CC1=NN(C(=O)c2ccncc2)C(=O)C1N=Nc1ccc(S(=O)(=O)Nc2ncccn2)cc1` (centres undefined), for which the T/C reads like this: under setting [1], 95 % of control; under setting [2], 91 % of control; under setting [3], 92 % of control.

Turning to `O=C(O)c1cn2c3c(cc(N4CCN(CCO)CC4)cc3c1=O)SCC2`, the T/C by setting is: under setting [4], 104 % of control; under setting [5], 113 % of control; under setting [6], 105 % of control.

Turning to `O=C(O)C(=O)O.O=C([O-])C(=O)[O-].O=C([O-])C(=O)[O-].[NH-]CC[NH-].[NH-]CC[NH-].[NH-]CC[NH-].[Ru+4].[Ru+5]`, the T/C is 117 % of control (dose: 25.0 mg/kg/injection, schedule: Q04DX003 (ip), vehicle: water) and 151 % of control (dose: 50.0 mg/kg/injection, schedule: Q04DX003 (ip), vehicle: water).

For `N#CC1=C(N)OC(c2ccccc2)=C(C#N)C1c1ccccc1` (centres undefined), the T/C runs as follows: under setting [4], 98 % of control; under setting [5], 96 % of control; under setting [6], 91 % of control.

For `O=C(Nc1cccc(Cl)c1)OCC#CCCl`, the T/C by setting is: (dose: 50.0 mg/kg/injection, schedule: Q01DX005 (ip), vehicle: saline + Tween-80 + alcohol) 100 % of control; (dose: 100.0 mg/kg/injection, schedule: Q01DX005 (ip), vehicle: saline + Tween-80 + alcohol) 107 % of control; (dose: 200.0 mg/kg/injection, schedule: Q01DX005 (ip), vehicle: saline + Tween-80 + alcohol) 108 % of control.

`Cc1nnc2c3nccnc3c(N)nn12`: the T/C is, setting by setting: under setting [4], 96 % of control; under setting [5], 104 % of control; under setting [6], 104 % of control.

As for `C/C(=N\NC(N)=Nc1ccc(Cl)cc1)c1ccc(Cl)c(Cl)c1`, the T/C was 99 % of control (dose: 25.0 mg/kg/injection, schedule: Q04DX002 (ip), vehicle: saline with Tween-80); 102 % of control (dose: 50.0 mg/kg/injection, schedule: Q04DX002 (ip), vehicle: saline with Tween-80); 102 % of control (dose: 100.0 mg/kg/injection, schedule: Q04DX002 (ip), vehicle: saline with Tween-80).

`CCOC(=O)C1CSC2(CC(C)CC(C)(C)C2)N1` (centres undefined): the T/C under setting [7] is 106 % of control; the T/C (dose: 100.0 mg/kg/injection, schedule: Q01DX005 (ip), vehicle: saline with Tween-80) is 107 % of control; the T/C under setting [8] was 104 % of control.

`Cn1c(-c2ccc(/C=N/N=C(\N)N/N=C/c3ccc(-c4c[n+]5ccsc5n4C)cc3)cc2)c[n+]2ccsc12`: the T/C runs as follows: (dose: 0.13 mg/kg/injection, schedule: Q01DX005 (ip), vehicle: saline) 108 % of control; (dose: 0.25 mg/kg/injection, schedule: Q01DX005 (ip), vehicle: saline) 121 % of control.

Take `O=C(CNC(=O)Nc1cccc([N+](=O)[O-])c1)NNC(=O)Nc1ccc(Cl)c([N+](=O)[O-])c1`: the T/C reads like this: under setting [4], 91 % of control; under setting [5], 91 % of control; under setting [6], 106 % of control.

With `CN(Cc1ccco1)NC(=O)C(=O)NCc1ccco1`, the T/C reads like this: under setting [7], 97 % of control; under setting [8], 88 % of control.

In the case of `CC(=O)OCC12C3CC(=O)OC1C(OC(=O)C=C(C)C)C1C(C)=CC(=O)C(OC(C)=O)C1(C)C2C(=O)C(OC(C)=O)C3C` (centres undefined), the T/C is 100 % of control (dose: 0.5 mg/kg/injection, schedule: Q01DX009 (ip), vehicle: distilled water + Tween-80); 97 % of control (dose: 1.0 mg/kg/injection, schedule: Q01DX009 (ip), vehicle: distilled water + Tween-80); 102 % of control (dose: 2.0 mg/kg/injection, schedule: Q01DX009 (ip), vehicle: distilled water + Tween-80); 101 % of control (dose: 4.0 mg/kg/injection, schedule: Q01DX009 (ip), vehicle: distilled water + Tween-80); 102 % of control (dose: 8.0 mg/kg/injection, schedule: Q01DX009 (ip), vehicle: distilled water + Tween-80).

For `CC1CC(c2ccccc2)(c2ccccc2)CN1C` (centres undefined), the T/C was 105 % of control (dose: 12.5 mg/kg/injection, schedule: Q01DX005 (ip), vehicle: saline with Tween-80); 102 % of control (dose: 25.0 mg/kg/injection, schedule: Q01DX005 (ip), vehicle: saline with Tween-80); 102 % of control and 103 % of control under setting [7].

`O=P(c1ccccc1)(N1CC1)N1CC1`: the T/C is 118 % of control (dose: 15.0 mg/kg/injection, schedule: Q04DX003 (ip), vehicle: saline) and 122 % of control (dose: 30.0 mg/kg/injection, schedule: Q04DX003 (ip), vehicle: saline).

Regarding `N=C1SC23CCCN2C(=O)C2(CCCN2C3=O)S1`, the T/C is, setting by setting: (dose: 100.0 mg/kg/injection, schedule: Q01DX001 (ip), vehicle: saline) 96 % of control; (dose: 200.0 mg/kg/injection, schedule: Q01DX001 (ip), vehicle: saline) 92 % of control; (dose: 400.0 mg/kg/injection, schedule: Q01DX001 (ip), vehicle: saline) 92 % of control.

`Oc1cccc(Nc2ccccc2)c1`: the T/C was 108 % of control (dose: 50.0 mg/kg/injection, schedule: Q01DX009 (ip), vehicle: olive oil, sesame oil, peanut oil); 103 % of control (dose: 100.0 mg/kg/injection, schedule: Q01DX009 (ip), vehicle: olive oil, sesame oil, peanut oil); 111 % of control (dose: 200.0 mg/kg/injection, schedule: Q01DX009 (ip), vehicle: olive oil, sesame oil, peanut oil).

In the case of `CC(=NCCN=C(C)c1ccc(Br)cc1)c1ccc(Br)cc1`, the T/C is 91 % of control under setting [1], 92 % of control under setting [2] and 91 % of control under setting [3].

For `CCOC(=O)Nc1ccc(Cl)cc1C(=O)c1ccccc1`, the T/C (dose: 45.0 mg/kg/injection, schedule: Q01DX009 (ip), vehicle: saline with Tween-80) is 102 % of control; the T/C (dose: 90.0 mg/kg/injection, schedule: Q01DX009 (ip), vehicle: saline with Tween-80) was 100 % of control; the T/C (dose: 180.0 mg/kg/injection, schedule: Q01DX009 (ip), vehicle: saline with Tween-80) was 96 % of control.

Source of the values: PubChem BioAssay AID330 (DTP/NCI, 2004).
